Entries after “also recorded” stand apart in the source; their conditions may differ.
What was measured:
[1] = tested on: five hSTING alleles (WT, REF, HAQ, AQ and Q); assay: IFN-β luciferase reporter assay in HEK 293T cells expressing hSTING variants; assay type: cell-based, human; details: 100 μg/ml DMXAA, 6 hours
Protocol: Luciferase Assay. […] After 20 min, stimulation mixtures were removed and normal media was added. After a total of 6 hours, cell lysates were prepared and reporter gene activity measured using the Dual Luciferase Assay System (Promega) on a Spectramax M3 luminometer.

B16.F10 tumors = assay: Intratumoral treatment of established B16.F10 tumors; assay type: in vivo, mouse; details: C57BL/6 mice, single IT dose of 500 μg DMXAA
Protocol: (§1) In vivo tumor experiments. 10^6 of B16-SIY tumor cells, 5×10^4 B16.F10 tumor cells, 10^5 4T1 and CT26, or 10^6 other tumor cells were injected s.c. in 100 μl DPBS or HBSS on the right flank of mice. Following tumor implantation, mice were randomized into treatment groups. […] Measurements of tumors were performed twice per week using calipers, and the tumor volume was calculated with the formula: V=(length×width^2)/2. In some experiments, tumor-free survivors were rechallenged with tumor cells on the opposite flank several weeks after the injection of the primary tumor. Naïve mice were used as controls. For the contralateral experiments, mice were implanted on both flanks and only one tumor was treated. For the B16 melanoma lung metastasis experiments, mice were implanted on the flank with 5×10^4 cells B16.F10 on day 0, and then injected intravenously with 1×10^5 cells on day 7. Lungs were harvested on day 28. Administration of compounds, measurements of tumors and counting of lung tumors were performed in a blinded fashion.

[2] = tested on: innate cytokines in BM-DCs; assay: Quantitative RT-PCR analysis of cytokines in BM-DCs; assay type: cell-based, mouse; details: DMXAA 25 μg/ml, 4 h
Protocol: Quantitative RT-PCR analysis of cytokines. […] Total RNA was isolated using the RNeasy® kit (Qiagen) and incubated with Deoxyribonuclease I, Amplification Grade (Invitrogen). cDNA was synthesized using High Capacity cDNA Reverse Transcription Kit (Applied Biosystem) and expression of cytokines was measured by real-time qRT-PCR using specific primers/probes for mouse INF-β, TNF-α, IL-6 and IL-12p40, using a 7300 Real Time PCR system (Applied Biosystem). The results are expressed as 2^−ΔCt using 18s as endogenous control.

[3] = tested on: STING pathway (TBK1, IRF3 phosphorylation); assay: Western blot of pTBK1 and pIRF3 in macrophages and BM-DCs after STING agonist; assay type: cell-based, mouse
Protocol: DMXAA for the same time-points. Proteins were extracted with Triton-X buffer (150 mM sodium chloride, 50 mM Tris, 1% Triton-X, pH 8.0) with proteinase inhibitors (Thermo scientific) and phosphatase inhibitors (Sigma). 30 μg of protein was electrophoresed in 10% SDS-PAGE gels and transferred onto Immobilon-FL membranes (Millipore). Blots were incubated with antibodies specific for phosphorylated TBK1 (Ser172), phosphorylated IRF3 (Ser396), total TBK1, STING and GAPDH (Cell Signaling) or total IRF3 (Invitrogen). Proteins from HEK 293T lines stably expressing STING were extracted with M-PER (Thermo Scientific). 6 μg of protein was loaded onto a 4-12% MES NuPAGE gel (Life Technologies), transferred to nitrocellulose, and probed with anti-HA antibody (Santa Cruz). Anti-rabbit IRDye 680RD label secondary antibody was used for visualization of bands with the Odyssey Imaging system (LI-COR).

IFN-β = assay: Murine IFN-β ELISA, macrophages and BM-DCs; assay type: cell-based, mouse
Protocol: Murine IFN-β ELISA. […] Conditioned media were collected after 4 hours. IFN-β concentration was assessed using VeriKine™ Mouse Interferon Beta ELISA Kit (PBL interferon source).

B16.SIY tumors = assay type: in vivo
Protocol: As a comparison, the cyclic dinucleotide compounds from Aduro will be injected into tumors in parallel sets of mice. Tumor volumes are estimated twice a week using the formula described above.
as §1

tumors = details: background statement; cited from earlier work

SMILES: Cc1ccc2c(=O)c3cccc(CC(=O)O)c3oc2c1C [DMXAA, 5,6-dimethylXAA (xanthenone-4-acetic acid)]
- IFN-β reporter activation [1]: failed to activate
- tumor growth (B16.F10 tumors): significantly reduced the growth
- expression of innate cytokines ([2]; STING^−/− BM-DCs): not STING^−/− BM-DCs
- expression of innate cytokines ([2]; WT BM-DCs): upregulated other cytokines such as TNFα, IL6, IL1, IL10, and IL12 in a STING dependent manner; also recorded: IFN-β, TNF-α, IL-1β, IL-6 and IL12p35 were induced
- activation of the STING pathway (pTBK1, pIRF3) ([3]; BM-DC from WT or STING ko mice): same potent activation of the pathway
- phosphorylation of TBK1 and IRF3 ([3]; STING deficient macrophages, DMXAA 50 μg/ml): not in STING deficient cells; also recorded: abolished
- phosphorylation of TBK1 and IRF3 ([3]; STING^−/− macrophages reconstituted with mSTING-HA, DMXAA): restored phosphorylation of TBK1 and IRF3
- phosphorylation of TBK1 and IRF3 ([3]; WT macrophages, DMXAA 50 μg/ml or ML RR-S2 CDA 50 μM): rapid and potent phosphorilation of TBK1 and IRF3; also recorded: phosphorylation of TBK1 and IRF3 was observed
- IFN-β production (IFN-β; BM-DC from WT versus STING^−/− mice, DMXAA): a high production of IFN-β
- IFN-β production (IFN-β; STING^−/− macrophages, DMXAA 50 μg/ml): only in WT macrophages; also recorded: not from STING^−/− macrophages
- IFN-β production (IFN-β; WT macrophages, DMXAA 50 μg/ml): high production of IFN-β; also recorded: IFN-β secretion was detected
- mice that reject the tumors (B16.SIY tumors; WT B6 mice, tumors 100-200 mm3, single intratumoral dose): 80-90%
- tumor regression and rejection (B16.SIY tumors; WT mice, single IT dose of 500 μg at day 7): potent tumor regression in all animals and complete tumor rejection in the majority of mice
- regression of injected and non-injected secondary tumor (B16.SIY tumors; tumors in both flanks, only one treated IT): Tumor regression was observed in both sites
- outcome of clinical trials for the treatment of tumors (tumors): all failed

Source: patent US20180028553A1, “USE OF STING AGONIST AS CANCER TREATMENT” (The University of Chicago, priority 2013, published 2018)
